In patent publication US6706663B2, “Herbicidal 3-heterocyclic substituted benzisothiazole and benzisoxazole compounds” (Wyeth, priority 2000, dated 2004):

Key:
[1] = system: GLXMAW (Soybean, Williams); assay: Postemergence herbicidal evaluation; assay type: in vivo, Glycine max, (L.) Merr. cv Williams; details: postemergence
Summary of the method: (§1)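 Visual 0–9 injury scores versus control plants, covering stand, vigour, malformation, size, chlorosis and general appearance, taken four to five weeks post-spray and averaged over replicate tests. Plants were sprayed at roughly two weeks old and held on greenhouse benches.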

[2] = system: MOOVA (Monochoria vaginalis); assay: Flooded paddy, preemergence weed control; assay type: in vivo, Presl.; details: rated 3-4 weeks after treatment, 0-9 rating scale
Summary of the method: (§2)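 Visual 0–9 ratings versus controls scored stand, vigor, malformation, size, chlorosis and overall appearance. Plants grew from seeds or propagating organs sown 0.5 cm deep in silt loam, with water held 1.5–3 cm above the soil for the whole test under greenhouse care.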

[3] = system: SETVI (Setaria viridis); assay: Postemergence herbicidal evaluation; assay type: in vivo, (L.) Beau; details: postemergence
Summary of the method: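 Postemergence foliar spray on two-week-old seedlings, dose equivalent to about 0.0040 to 1.000 kg/ha. Ratings use a 0-9 visual scale relative to control at four to five weeks.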

[4] = system: ECHCG (Echinochloa crus-galli); assay: Postemergence herbicidal evaluation; assay type: in vivo, (L.) Beau; details: postemergence
Summary of the method: as §1

[5] = system: GALAP (Galium aparine); assay: Preemergence herbicidal evaluation; assay type: in vivo; details: preemergence, rated 4-5 weeks after treatment
Summary of the method: (§3)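 Preemergence soil spray, aq. acetone; greenhouse; visual 0–9 score vs control at 4–5 wk.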

[6] = system: ORYSAT (Rice, Tebonnet); assay: Preemergence herbicidal evaluation; assay type: in vivo, Oryza sativa, (L.) Tebonnet; details: preemergence, rated 4-5 weeks after treatment
[7] = system: ECHCG (Echinochloa crus-galli); assay: Preemergence herbicidal evaluation; assay type: in vivo, (L.) Beau; details: preemergence, rated 4-5 weeks after treatment
Summary of the method: as §3

[8] = system: SETVI (Setaria viridis); assay: Preemergence herbicidal evaluation; assay type: in vivo, (L.) Beau; details: preemergence, rated 4-5 weeks after treatment
Summary of the method: as §3

[9] = system: ORYSAT (Rice, Tebonnet); assay: Postemergence herbicidal evaluation; assay type: in vivo, Oryza sativa, (L.) Tebonnet; details: postemergence
Summary of the method: as §1

[10] = system: ZEAMX (Corn, Field); assay: Postemergence herbicidal evaluation; assay type: in vivo, Zea mays, L.; details: postemergence
Summary of the method: as §1

[11] = system: AMBEL (Ambrosia artemisifolia); assay: Preemergence herbicidal evaluation; assay type: in vivo, L.; details: preemergence, rated 4-5 weeks after treatment
Summary of the method: as §3

[12] = system: CASOB (Cassia obtusifolia); assay: Preemergence herbicidal evaluation; assay type: in vivo, L.; details: preemergence, rated 4-5 weeks after treatment
Summary of the method: as §3

[13] = system: CHEAL (Chenopodium album); assay: Preemergence herbicidal evaluation; assay type: in vivo, L.; details: preemergence, rated 4-5 weeks after treatment
Summary of the method: as §3

[14] = system: ABUTH (Abutilon theophrasti); assay: Preemergence herbicidal evaluation; assay type: in vivo, Medic.; details: preemergence, rated 4-5 weeks after treatment
[15] = system: IPOHE (Ipomoea hederacea); assay: Postemergence herbicidal evaluation; assay type: in vivo, (L.) Jacq.; details: postemergence
Summary of the method: as §1

[16] = system: ECHORC (Echinochloa oryzoides); assay: Flooded paddy, preemergence weed control; assay type: in vivo, Echinochloa oryzoides (Ard.) Fritsch.; details: rated 3-4 weeks after treatment, 0-9 rating scale
Summary of the method: as §2

[17] = system: TRZAWR (Wheat, Winter, cv Riband); assay: Postemergence herbicidal evaluation; assay type: in vivo, Triticum aestivum; details: postemergence
Summary of the method: as §1

Cn1c(C(F)(F)F)cc(=O)n(-c2ccc3snc(C4OCC(CS(C)(=O)=O)O4)c3c2)c1=O (single isomer, unassigned) [Compound 87, 1-methyl-3-[3-[4-[(methylsulfonyl)methyl]-1,3-dioxolan-2-yl]-1,2-benzisothiazol-5-yl]-6-(trifluoromethyl)uracil]
GLXMAW herbicidal rating ([1]; rate 0.0320 kg/ha): 9.0
GLXMAW herbicidal rating ([1]; rate 0.0620 kg/ha): 8.5
MOOVA herbicidal rating ([2]; rate 0.0320 kg/ha): 0.0
MOOVA herbicidal rating ([2]; rate 0.1250 kg/ha): 8.0
SETVI herbicidal rating ([3]; rate 0.0320 kg/ha): 6.0
SETVI herbicidal rating ([3]; rate 0.0620 kg/ha): 9.0
ECHCG herbicidal rating ([4]; rate 0.0320 kg/ha): 3.0
ECHCG herbicidal rating ([4]; rate 0.0620 kg/ha): 4.0
Preemergence herbicidal rating GALAP ([5]; rate 0.0620 kg/ha): 6.0
Preemergence herbicidal rating GALAP ([5]; rate 0.1250 kg/ha): 9.0
Preemergence herbicidal rating GALAP ([5]; rate 0.2500 kg/ha): 9.0
Preemergence herbicidal rating ORYSAT ([6]; rate 0.0620 kg/ha): 2.0
Preemergence herbicidal rating ORYSAT ([6]; rate 0.1250 kg/ha): 3.0
Preemergence herbicidal rating ORYSAT ([6]; rate 0.2500 kg/ha): 5.0
Preemergence herbicidal rating ECHCG ([7]; rate 0.0620 kg/ha): 5.5
Preemergence herbicidal rating ECHCG ([7]; rate 0.1250 kg/ha): 6.5
Preemergence herbicidal rating ECHCG ([7]; rate 0.2500 kg/ha): 9.0
Preemergence herbicidal rating SETVI ([8]; rate 0.0620 kg/ha): 6.0
Preemergence herbicidal rating SETVI ([8]; rate 0.1250 kg/ha): 8.0
Preemergence herbicidal rating SETVI ([8]; rate 0.2500 kg/ha): 9.0
ORYSAT herbicidal rating ([9]; rate 0.0320 kg/ha): 3.0
ORYSAT herbicidal rating ([9]; rate 0.0620 kg/ha): 3.5
ZEAMX herbicidal rating ([10]; rate 0.0320 kg/ha): 3.5
ZEAMX herbicidal rating ([10]; rate 0.0620 kg/ha): 3.5
Preemergence herbicidal rating AMBEL ([11]; rate 0.0620 kg/ha): 9.0
Preemergence herbicidal rating AMBEL ([11]; rate 0.1250 kg/ha): 9.0
Preemergence herbicidal rating AMBEL ([11]; rate 0.2500 kg/ha): 9.0
Preemergence herbicidal rating CASOB ([12]; rate 0.0620 kg/ha): 6.0
Preemergence herbicidal rating CASOB ([12]; rate 0.1250 kg/ha): 9.0
Preemergence herbicidal rating CASOB ([12]; rate 0.2500 kg/ha): 7.0
Preemergence herbicidal rating CHEAL ([13]; rate 0.0620 kg/ha): 9.0
Preemergence herbicidal rating CHEAL ([13]; rate 0.1250 kg/ha): 9.0
Preemergence herbicidal rating CHEAL ([13]; rate 0.2500 kg/ha): 9.0
Preemergence herbicidal rating ABUTH ([14]; rate 0.0620 kg/ha): 9.0
Preemergence herbicidal rating ABUTH ([14]; rate 0.1250 kg/ha): 9.0
Preemergence herbicidal rating ABUTH ([14]; rate 0.2500 kg/ha): 9.0
IPOHE herbicidal rating ([15]; rate 0.0320 kg/ha): 9.0
IPOHE herbicidal rating ([15]; rate 0.0620 kg/ha): 9.0
ECHORC herbicidal rating ([16]; rate 0.0320 kg/ha): 0.0
ECHORC herbicidal rating ([16]; rate 0.1250 kg/ha): 0.0
TRZAWR herbicidal rating ([17]; rate 0.0320 kg/ha): 3.0
TRZAWR herbicidal rating ([17]; rate 0.0620 kg/ha): 4.0

Cn1c(C(F)(F)F)cc(=O)n(-c2ccc3snc(C4OCC(C[S+](C)[O-])O4)c3c2)c1=O (stereo not drawn) [Compound 88, 1-methyl-3-[3-[4-[(methylsulfinyl)methyl]-1,3-dioxolan-2-yl]-1,2-benzisothiazol-5-yl]-6-(trifluoromethyl)uracil]
GLXMAW herbicidal rating ([1]; rate 0.0320 kg/ha): 9.0
GLXMAW herbicidal rating ([1]; rate 0.0620 kg/ha): 9.0
MOOVA herbicidal rating ([2]; rate 0.0320 kg/ha): 0.0
MOOVA herbicidal rating ([2]; rate 0.1250 kg/ha): 9.0
SETVI herbicidal rating ([3]; rate 0.0320 kg/ha): 9.0
SETVI herbicidal rating ([3]; rate 0.0620 kg/ha): 9.0
ECHCG herbicidal rating ([4]; rate 0.0320 kg/ha): 5.0
ECHCG herbicidal rating ([4]; rate 0.0620 kg/ha): 5.0
Preemergence herbicidal rating GALAP ([5]; rate 0.0620 kg/ha): 7.0
Preemergence herbicidal rating GALAP ([5]; rate 0.1250 kg/ha): 9.0
Preemergence herbicidal rating GALAP ([5]; rate 0.2500 kg/ha): 9.0
Preemergence herbicidal rating ORYSAT ([6]; rate 0.0620 kg/ha): 4.0
Preemergence herbicidal rating ORYSAT ([6]; rate 0.1250 kg/ha): 5.0
Preemergence herbicidal rating ORYSAT ([6]; rate 0.2500 kg/ha): 8.0
Preemergence herbicidal rating ECHCG ([7]; rate 0.0620 kg/ha): 5.5
Preemergence herbicidal rating ECHCG ([7]; rate 0.1250 kg/ha): 6.5
Preemergence herbicidal rating ECHCG ([7]; rate 0.2500 kg/ha): 9.0
Preemergence herbicidal rating SETVI ([8]; rate 0.0620 kg/ha): 5.5
Preemergence herbicidal rating SETVI ([8]; rate 0.1250 kg/ha): 9.0
Preemergence herbicidal rating SETVI ([8]; rate 0.2500 kg/ha): 9.0
ORYSAT herbicidal rating ([9]; rate 0.0320 kg/ha): 4.0
ORYSAT herbicidal rating ([9]; rate 0.0620 kg/ha): 4.0
ZEAMX herbicidal rating ([10]; rate 0.0320 kg/ha): 4.0
ZEAMX herbicidal rating ([10]; rate 0.0620 kg/ha): 5.0
Preemergence herbicidal rating AMBEL ([11]; rate 0.0620 kg/ha): 9.0
Preemergence herbicidal rating AMBEL ([11]; rate 0.1250 kg/ha): 9.0
Preemergence herbicidal rating AMBEL ([11]; rate 0.2500 kg/ha): 9.0
Preemergence herbicidal rating CASOB ([12]; rate 0.0620 kg/ha): 5.0
Preemergence herbicidal rating CASOB ([12]; rate 0.1250 kg/ha): 9.0
Preemergence herbicidal rating CASOB ([12]; rate 0.2500 kg/ha): 9.0
Preemergence herbicidal rating CHEAL ([13]; rate 0.0620 kg/ha): 9.0
Preemergence herbicidal rating CHEAL ([13]; rate 0.1250 kg/ha): 9.0
Preemergence herbicidal rating CHEAL ([13]; rate 0.2500 kg/ha): 9.0
Preemergence herbicidal rating ABUTH ([14]; rate 0.0620 kg/ha): 9.0
Preemergence herbicidal rating ABUTH ([14]; rate 0.1250 kg/ha): 9.0
Preemergence herbicidal rating ABUTH ([14]; rate 0.2500 kg/ha): 9.0
IPOHE herbicidal rating ([15]; rate 0.0320 kg/ha): 9.0
IPOHE herbicidal rating ([15]; rate 0.0620 kg/ha): 9.0
ECHORC herbicidal rating ([16]; rate 0.0320 kg/ha): 0.0
ECHORC herbicidal rating ([16]; rate 0.1250 kg/ha): 0.0
TRZAWR herbicidal rating ([17]; rate 0.0320 kg/ha): 3.0
TRZAWR herbicidal rating ([17]; rate 0.0620 kg/ha): 3.5
